The source of these data is ChEMBL document CHEMBL1201862, “PubChem BioAssay data set” (2004).

Some test systems named below: SK-MEL-2; HOP-62; SK-MEL-5; IGROV-1; HL-60; OVCAR-3; DMS-273; TK-10; HCT-116; RXF 393; SNB-19; SF-295; SF-268; U-251; K562; HT-29.
Holding throughout (test): NCI-60 cell line screen, 48 h

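Cells were grown in 96-well plates and exposed to each compound for 48 hours at five concentrations; endpoints were interpolated linearly between bracketing concentrations, or set to the highest concentration if not reached. The concentration for 50% growth inhibition is given as GI50.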 Calls of active or inactive are those of the source. Cut-off read from the data, not from the text of the source: active = GI50 up to about 1.1 µM and inactive = higher.

As for `Fc1cccc(Cl)c1C1SCc2nc3ccccc3n21` (stereo not drawn), the GI50 in the assay on SK-MEL-2 is 21.1 µM (inactive); with HOP-62 it was 33.2 µM (inactive); in the assay on SK-MEL-5 it was 15.4 µM (inactive); in the assay on IGROV-1, 29.1 µM (inactive); in the assay with HL-60, 11 µM (inactive); in the assay with OVCAR-3, 21.9 µM (inactive). The GI50 with DMS-273 is 22.6 µM (inactive); in the assay with TK-10, 57 µM (inactive); with HCT-116, 22.4 µM (inactive); in the assay on RXF 393, 31.6 µM (inactive); in the assay on SNB-19 it was 46.1 µM (inactive); with SF-295, 23.7 µM (inactive). In addition, the GI50 with SF-268 is 50.5 µM (inactive); with U-251, 27.2 µM (inactive); in the assay with K562 it was 25.8 µM (inactive); in the assay on HT-29, 25.5 µM (inactive).

As to `O=C1CCCC/C1=C\c1ccc(Cl)c(Cl)c1`, the GI50 with HOP-62 is 57.7 µM (inactive); in the assay with SK-MEL-5, 17.2 µM (inactive); with IGROV-1, 25.2 µM (inactive); with HL-60 it was 19 µM (inactive); with DMS-273, 20 µM (inactive); with TK-10, 17 µM (inactive). The GI50 in the assay with HCT-116 is 17.1 µM (inactive); in the assay on SNB-19 it was 25.8 µM (inactive); with SF-268, 23.3 µM (inactive); in the assay on U-251, 16.6 µM (inactive); in the assay on K562, 18.9 µM (inactive); in the assay with HT-29 it was 22.3 µM (inactive).

`O=C(c1ccccc1)c1c(CC(O)c2ccncc2)n(C(=O)c2ccccc2)c2ccccc12` (stereo not drawn): the GI50 is 16 µM (inactive) in the assay on SK-MEL-2; 16.4 µM (inactive) in the assay on HOP-62; 16.1 µM (inactive) in the assay on SK-MEL-5; 16.7 µM (inactive) with IGROV-1; 18.2 µM (inactive) with HL-60; 14 µM (inactive) with OVCAR-3. The GI50 in the assay on DMS-273 was 17.9 µM (inactive); with TK-10 it was 28.6 µM (inactive); in the assay on HCT-116, 15.6 µM (inactive); with SNB-19 it was 21.8 µM (inactive); with SF-295, 12.1 µM (inactive); in the assay on SF-268, 20.7 µM (inactive). The GI50 was 17.7 µM (inactive) in the assay with U-251, > 10 µM (inactive) in the assay with K562 and 17.3 µM (inactive) in the assay on HT-29.

Take `COc1cc(OC)c2c(O)cc(CC(C)O)cc2c1` (stereo not drawn): the GI50 in the assay on SK-MEL-2 was > 100 µM (inactive); in the assay on HOP-62, > 100 µM (inactive); in the assay with SK-MEL-5, > 100 µM (inactive); with IGROV-1 it was > 100 µM (inactive); in the assay on HL-60, 78.9 µM (inactive); in the assay with OVCAR-3 it was > 100 µM (inactive). The GI50 in the assay on DMS-273, in the assay on TK-10, in the assay on HCT-116, in the assay on RXF 393, in the assay on SNB-19 and in the assay on SF-295 was > 100 µM (inactive) in each case. For the same molecule, the GI50 with SF-268 is > 100 µM (inactive); in the assay with U-251 it was 91.4 µM (inactive); in the assay with K562 it was > 100 µM (inactive); in the assay with HT-29 it was 92.5 µM (inactive).

Consider `NC(CCCNc1ccc(O)cc1)C(=O)O` (stereo not drawn), for which the GI50 in the assay with SK-MEL-2 was 31 µM (inactive); in the assay on HOP-62, > 80.2 µM (inactive); in the assay with SK-MEL-5, 25.8 µM (inactive); in the assay with IGROV-1 it was 26.4 µM (inactive); with HL-60 it was 19.8 µM (inactive); in the assay with OVCAR-3, 18.1 µM (inactive). For the same molecule, the GI50 was > 100 µM (inactive) with DMS-273; > 63.2 µM (inactive) in the assay on TK-10; 18.2 µM (inactive) in the assay with HCT-116; 26.1 µM (inactive) in the assay on RXF 393; > 100 µM (inactive) in the assay with SNB-19; > 100 µM (inactive) with SF-295. For the same molecule, the GI50 is 42.8 µM (inactive) in the assay on SF-268, > 100 µM (inactive) with U-251, 35.4 µM (inactive) with K562 and 41.7 µM (inactive) in the assay with HT-29.

For the molecule `NC(=O)c1ncn(Cc2ccccc2)c1CNC(N)=S`, the GI50 with SK-MEL-5, in the assay with IGROV-1, in the assay on HL-60, in the assay with OVCAR-3, in the assay on DMS-273 and in the assay with TK-10 was > 100 µM (inactive) in each case. Moreover, the GI50 with RXF 393, with SNB-19, in the assay on SF-295, with SF-268, with U-251 and with K562 was > 100 µM (inactive) each time. Besides, the GI50 in the assay on HT-29 was > 100 µM (inactive).

For `O=C(CCC(=O)Nc1ccc(Cl)c(Cl)c1)CC(=O)c1ccc2ccccc2c1`, the GI50 in the assay on SK-MEL-2 was 41.8 µM (inactive); in the assay on HOP-62 it was > 100 µM (inactive); in the assay with SK-MEL-5 it was > 100 µM (inactive); with IGROV-1, > 100 µM (inactive); with HL-60 it was > 100 µM (inactive); with OVCAR-3, > 100 µM (inactive). Besides, the GI50 in the assay on DMS-273 is 62.4 µM (inactive); in the assay on TK-10, > 100 µM (inactive); in the assay on HCT-116, > 100 µM (inactive); in the assay on RXF 393 it was > 100 µM (inactive); with SNB-19 it was > 100 µM (inactive); with SF-295, > 100 µM (inactive). Besides, the GI50 in the assay on SF-268 was > 100 µM (inactive); with U-251, > 100 µM (inactive); with K562, 17.1 µM (inactive); in the assay with HT-29 it was 93.8 µM (inactive).

Take `COc1ccc(C(c2ccccc2)(c2ccc(OC)cc2)N2C(=O)NC3C(CCCCC(=O)NCCCCCCOP(OCCC#N)N(C(C)C)C(C)C)SCC32)cc1` (stereo not drawn): the GI50 is 11.6 µM (inactive) in the assay on SK-MEL-2; 17.6 µM (inactive) with HOP-62; 15.3 µM (inactive) with SK-MEL-5; 18.7 µM (inactive) in the assay with IGROV-1; 12.1 µM (inactive) in the assay on HL-60; 14.8 µM (inactive) in the assay with OVCAR-3. In addition, the GI50 in the assay on DMS-273 is 12.7 µM (inactive); in the assay on TK-10, 18 µM (inactive); in the assay on HCT-116, 12 µM (inactive); in the assay on RXF 393 it was 11.7 µM (inactive); in the assay with SF-295, 17.1 µM (inactive); in the assay on SF-268, 15.2 µM (inactive). For the same molecule, the GI50 in the assay with U-251 is 15 µM (inactive); in the assay with K562, 7.62 µM (inactive); in the assay with HT-29, 14.6 µM (inactive).

As for `Cn1cc2ccccc2c1-c1nc(F)nc(Nc2ccc(N)cc2)n1`, the GI50 with SK-MEL-2 was 13.3 µM (inactive); with HOP-62, 16.6 µM (inactive); in the assay on SK-MEL-5 it was 11.5 µM (inactive); with IGROV-1 it was 12.7 µM (inactive); in the assay with HL-60, 22.3 µM (inactive); in the assay with OVCAR-3, 20.8 µM (inactive). In addition, the GI50 with DMS-273 was 10.2 µM (inactive); with TK-10, 34.3 µM (inactive); in the assay with HCT-116 it was 15.5 µM (inactive); with RXF 393, 15.3 µM (inactive); in the assay with SNB-19 it was 29.3 µM (inactive); in the assay on SF-295, 16.2 µM (inactive). The GI50 with SF-268 was 20 µM (inactive); in the assay with U-251, 8.28 µM (inactive); with K562, 8.63 µM (inactive); in the assay on HT-29, 21.5 µM (inactive).

On to `CC(C)(C)C(=O)OCC1CCC(n2cnc3c(=O)[nH]c(N)nc32)O1` (stereo not drawn), for which the GI50 with SK-MEL-2, in the assay with HOP-62, with SK-MEL-5, with IGROV-1, with OVCAR-3 and with DMS-273 was > 100 µM (inactive) in each case. In addition, the GI50 with TK-10, in the assay on HCT-116, in the assay with SNB-19, in the assay with SF-295, with SF-268 and in the assay on U-251 was > 100 µM (inactive) each time. For the same molecule, the GI50 in the assay on K562 and with HT-29 was > 100 µM (inactive) in each case.

On to `O=C(CC(=O)N1N=C(c2ccccc2)C(/N=N/c2ccccc2Cl)C1=O)Nc1ccccc1Cl` (stereo not drawn), for which the GI50 was 43.5 µM (inactive) with SK-MEL-2; 33 µM (inactive) with HOP-62; 17.1 µM (inactive) with SK-MEL-5; 63.1 µM (inactive) in the assay on IGROV-1; 13 µM (inactive) with HL-60; 28.1 µM (inactive) with OVCAR-3. In addition, the GI50 in the assay on DMS-273 was 37.5 µM (inactive); in the assay on TK-10, 15.4 µM (inactive); in the assay on HCT-116, 25.9 µM (inactive); in the assay with SNB-19, 40.4 µM (inactive); in the assay on SF-295, 27.4 µM (inactive); with SF-268 it was 31.5 µM (inactive). Moreover, the GI50 with U-251 is 32.1 µM (inactive); in the assay on K562 it was 31.1 µM (inactive); in the assay on HT-29 it was 19.9 µM (inactive).

With `C[C@]12CCc3nonc3C1CC[C@@H]1C2CC[C@]2(C)C(=O)CCC12` (stereo partly drawn), the GI50 with SK-MEL-2 was 24.5 µM (inactive); with HOP-62, > 100 µM (inactive); in the assay with SK-MEL-5, 17.5 µM (inactive); in the assay with IGROV-1, 67.1 µM (inactive); in the assay with HL-60, 15.5 µM (inactive); with OVCAR-3 it was 25.5 µM (inactive). Also, the GI50 was 20.7 µM (inactive) in the assay on DMS-273; > 10 µM (inactive) with TK-10; 35.2 µM (inactive) in the assay with RXF 393; 81.1 µM (inactive) in the assay on SNB-19; 26.3 µM (inactive) with SF-295; 39.4 µM (inactive) in the assay with SF-268. The GI50 in the assay on U-251 is 48.6 µM (inactive); with K562 it was 33.7 µM (inactive); in the assay with HT-29, 17.2 µM (inactive).

For the molecule `COc1cccc2c1C(=O)c1c(O)c3c(c(O)c1C2=O)C[C@@](O)(C(=O)CO)CC3OC1CC(NCCCC(OC(C)=O)OC(C)=O)C(O)C(C)O1` (stereo partly drawn), the GI50 is 0.00192 µM (active) in the assay with SK-MEL-2; 0.00165 µM (active) with HOP-62; 0.006 µM (active) with IGROV-1; 0.00212 µM (active) with HL-60; 0.0045 µM (active) in the assay with OVCAR-3; < 0.0001 µM (active) with DMS-273. Besides, the GI50 was 0.00641 µM (active) in the assay with TK-10; 0.00172 µM (active) in the assay with RXF 393; 0.00246 µM (active) in the assay with SNB-19; 0.00147 µM (active) in the assay with SF-295; 0.00305 µM (active) in the assay with SF-268; 0.00308 µM (active) in the assay with U-251. The results for the GI50 in the assay with K562 and with HT-29 were 0.000512 µM (active) and 0.000711 µM (active), respectively.
